Where two headings read alike, the source gives them in different places.

The subject of data set [1] is HEP3B tumor xenografts. Format: in vivo.
The target in data set [2] is Recombinant FGFR1 (Homo sapiens (Human), UniProt P11362). The data set is described as follows: Kinase HotSpot assay, IC50 profiling of kinase activity inhibition (FGFR1). Format: biochemical. Particulars: Table 1; 10 μM ATP.
In data set [3] the target is Recombinant FGFR4 (Homo sapiens (Human), UniProt P22455). Briefly: Kinase HotSpot assay, IC50 profiling of kinase activity inhibition (FGFR4). The class given is biochemical. The settings on record: Table 1; 10 μM ATP.
Recombinant FGFR4, sequence (P22455 22-802): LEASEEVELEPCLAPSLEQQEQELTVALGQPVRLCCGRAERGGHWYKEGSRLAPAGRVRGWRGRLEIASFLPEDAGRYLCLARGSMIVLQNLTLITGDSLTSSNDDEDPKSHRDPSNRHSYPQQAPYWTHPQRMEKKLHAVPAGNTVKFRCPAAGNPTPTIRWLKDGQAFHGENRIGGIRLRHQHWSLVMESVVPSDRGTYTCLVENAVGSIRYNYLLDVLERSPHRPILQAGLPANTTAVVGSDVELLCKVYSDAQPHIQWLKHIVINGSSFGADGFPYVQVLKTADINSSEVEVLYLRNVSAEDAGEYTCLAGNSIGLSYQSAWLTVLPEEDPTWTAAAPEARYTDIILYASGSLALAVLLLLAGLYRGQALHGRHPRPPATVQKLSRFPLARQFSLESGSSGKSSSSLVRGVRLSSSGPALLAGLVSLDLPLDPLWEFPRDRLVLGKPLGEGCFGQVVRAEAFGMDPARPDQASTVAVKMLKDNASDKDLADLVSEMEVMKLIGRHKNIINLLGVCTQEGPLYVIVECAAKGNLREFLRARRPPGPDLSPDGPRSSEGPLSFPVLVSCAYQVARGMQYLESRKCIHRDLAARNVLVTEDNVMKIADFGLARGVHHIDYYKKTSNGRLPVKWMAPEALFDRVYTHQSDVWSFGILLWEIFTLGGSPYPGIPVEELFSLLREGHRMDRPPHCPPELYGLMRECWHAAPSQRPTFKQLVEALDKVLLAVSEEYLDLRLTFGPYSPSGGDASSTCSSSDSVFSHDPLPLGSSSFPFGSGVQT

Recombinant FGFR1, sequence (P11362 22-822): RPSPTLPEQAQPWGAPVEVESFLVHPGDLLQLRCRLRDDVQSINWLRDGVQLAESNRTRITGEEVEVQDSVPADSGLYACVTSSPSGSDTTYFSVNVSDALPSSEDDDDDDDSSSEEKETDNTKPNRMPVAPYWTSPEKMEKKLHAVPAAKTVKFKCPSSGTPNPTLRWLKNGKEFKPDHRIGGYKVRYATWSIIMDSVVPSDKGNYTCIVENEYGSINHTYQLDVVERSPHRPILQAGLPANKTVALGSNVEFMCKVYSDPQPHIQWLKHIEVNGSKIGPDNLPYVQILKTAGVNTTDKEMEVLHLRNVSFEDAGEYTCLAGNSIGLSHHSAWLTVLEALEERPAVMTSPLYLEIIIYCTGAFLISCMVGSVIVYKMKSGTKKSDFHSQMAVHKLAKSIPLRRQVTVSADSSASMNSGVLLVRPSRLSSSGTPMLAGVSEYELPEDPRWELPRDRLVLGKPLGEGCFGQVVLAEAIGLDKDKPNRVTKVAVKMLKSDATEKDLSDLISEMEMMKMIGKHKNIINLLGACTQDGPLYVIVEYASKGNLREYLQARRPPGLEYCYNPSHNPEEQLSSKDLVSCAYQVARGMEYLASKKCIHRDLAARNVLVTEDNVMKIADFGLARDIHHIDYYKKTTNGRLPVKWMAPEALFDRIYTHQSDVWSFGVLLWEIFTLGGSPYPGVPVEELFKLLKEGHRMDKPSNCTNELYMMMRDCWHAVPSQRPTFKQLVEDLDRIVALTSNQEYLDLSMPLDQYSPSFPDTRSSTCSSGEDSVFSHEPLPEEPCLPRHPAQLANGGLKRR

On to `CCN1CCN(c2ccc(Nc3cc(N(C)C(=O)Nc4c(Cl)c(OC)cc(OC)c4Cl)ncn3)cc2)CC1` [BGJ398], for which the “tolerability (health of animals)” value in data set [1] (30 mg/kg orally twice daily) was “did not exhibit poor health”. Besides, in data set [1] (60 mg/kg orally twice daily), the “comparative in vivo efficacy (tumor volume)” value is “efficacy comparable to compound 108” and the “tolerability (health of animals)” value was “terminated on Day 11 due to poor health of animals”.

A word on the IC50: it is the concentration needed to halve the response being measured. Turning to `C=CC(=O)Nc1ccccc1Nc1cc(N(C)C(=O)Nc2cc(OC)cc(OC)c2)ncn1` [Example 102], the IC50 is over 10000 nM in data set [2] and 853 nM in data set [3].

Consider `C=CC(=O)Nc1cc(N2CCN(CC)CC2)ccc1Nc1cc(N(C)C(=O)Nc2c(Cl)c(OC)cc(OC)c2Cl)ncn1` [Example 108, N-(2-(6-(3-(2,6-Dichloro-3,5-dimethoxyphenyl)-1-methylureido)pyrimidin-4-ylamino)-5-(4-ethylpiperazin-1-yl)phenyl)acrylamide], for which the “comparative in vivo efficacy (tumor volume)” value in data set [1] (25, 37.5 or 50 mg/kg i.p. twice daily, 18 days) is on record as “more efficacious than BGJ398 at tolerable dosage levels”.

For the origin of these results see patent publication US9434697B2, “Pyrimidine FGFR4 inhibitors” (priority 2013, dated 2016).
